Reference: patent US11717561B2, “Multimodal antimicrobial therapy” (Longhorn Vaccines and Diagnostics, LLC, priority 2013, dated 2023)
Where two headings read alike, the source gives them in different places.

Key:
[1] = system: Mycobacterium smegmatis (MS); assay: Effect of antibiotics and lysostaphin on growth/lysis of live M. smegmatis, % T at 650 nm; format: cell-based
[2] = system: ethanol-killed MTB; format: cell-based, M. tuberculosis; details: 375 μg/ml
[3] = Imp 1 mg/ml, Lysostaphin 0 units/ml
[4] = Rif 1 mg/ml, Lysostaphin 0 units/ml

C[C@@H](O)[C@H]1C(=O)N2C(C(=O)O)=C(SCCNC=N)C[C@H]12.O [Imp, Imipenem monohydrate]
% Transmission (% T) change from baseline (negative equals growth, positive equals lysis/killing) ([1]; Imipenem 1.0 mg/ml without lysostaphin): +12.54 % T | % T 5 min [1, 3]: 78.00% | % T 3 hours [1, 3]: 82.67% | % T 20 hours [1, 3]: 90.54%

CO[C@H]1/C=C/O[C@@]2(C)Oc3c(C)c(O)c4c(O)c(c(/C=N/N5CCN(C)CC5)c(O)c4c3C2=O)NC(=O)/C(C)=C\C=C\[C@H](C)[C@H](O)[C@@H](C)[C@@H](O)[C@@H](C)[C@H](OC(C)=O)[C@@H]1C [Rif, Rifampicin]
% T 5 min [1, 4]: 79.25% | % T 3 hours [1, 4]: 75.27% | % T 20 hours [1, 4]: 71.79%

Lysostaphin: natural lysostaphin from S. staphylolyticus (Sigma Cat L7386), a 27 kD glycylglycine endopeptidase
% T 5 min ([1]; Lysostaphin alone 200 units/ml): 77.34% | % T 3 hours ([1]; Lysostaphin alone 200 units/ml): 71.54% | % T 20 hours ([1]; Lysostaphin alone 200 units/ml): 45.47%

Recombinant Lysostaphin: recombinant simulans lysostaphin produced in E. coli (Sigma-Aldrich)
% T at 3 min ([2]; bacterial dilution 1:2): 86.268% | % T at 10 min ([2]; bacterial dilution 1:2): 91.59% | % T at 20 min ([2]; bacterial dilution 1:2): 92.587% | % T at 3 min ([2]; bacterial dilution 1:4): 95.356% | % T at 10 min ([2]; bacterial dilution 1:4): 77.33% | % T at 20 min ([2]; bacterial dilution 1:4): 92.651% | % T at 3 min ([2]; bacterial dilution 1:8): 97.308% | % T at 10 min ([2]; bacterial dilution 1:8): 98.03% | % T at 20 min ([2]; bacterial dilution 1:8): 98.186%
